The target of assay [1] is T1, IRAK4 kinase (Homo sapiens, UniProt Q9NWZ3).
T1 sequence (Q9NWZ3 1-460): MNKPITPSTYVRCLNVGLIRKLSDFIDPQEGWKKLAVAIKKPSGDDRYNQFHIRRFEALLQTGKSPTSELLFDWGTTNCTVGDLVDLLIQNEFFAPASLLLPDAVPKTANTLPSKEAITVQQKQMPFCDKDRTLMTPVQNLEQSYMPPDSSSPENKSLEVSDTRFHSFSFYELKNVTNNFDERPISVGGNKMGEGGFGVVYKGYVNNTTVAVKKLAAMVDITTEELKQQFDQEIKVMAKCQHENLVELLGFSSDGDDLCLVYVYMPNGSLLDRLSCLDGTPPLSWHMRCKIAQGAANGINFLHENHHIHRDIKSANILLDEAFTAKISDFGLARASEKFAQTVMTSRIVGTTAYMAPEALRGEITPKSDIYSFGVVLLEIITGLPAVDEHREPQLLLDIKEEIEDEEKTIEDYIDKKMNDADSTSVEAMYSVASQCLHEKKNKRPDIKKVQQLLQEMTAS
Put plainly: IRAK4 kinase activity test (KinEASE-STK S1 HTRF kit). The note with it: 2.5 nM kinase, 1 μM biotinylated polypeptide substrate, 7 μM ATP, 37° C. 120 min. Format: biochemical. The method, boiled down: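 Compound in DMSO, serially diluted to 10000–0.038 nM final, incubated with 2.5 nM kinase, 1 μM biotinylated peptide substrate and 7 μM ATP at 37° C for 120 min. Eu-anti-phospho-Ser/Thr antibody plus streptavidin-XL665 stopped the reaction (1 h RT). HTRF 665/620 nm ratio gave % inhibition versus control; IC50 from nonlinear log-concentration fit.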
Background: Time-resolved FRET reads energy transfer from a long-lived donor to a nearby acceptor.

In assay [2] the test system is Interleukin-6 (IL-6) in LPS-induced human PBMC. The assay can be described thus: Cytokine secretion of LPS-induced human PBMC, IL-6 AlphaLISA detection. Format: cell-based. As to conditions: inhibition of IL-6, compound 1 hour or 20 hours, then LPS 100 ng/mL 5 hours. The method, then:
Frozen human PBMC (Milestone, PB010C) was resuspended to RPMI 1640 medium (Gibco, A1049101) after resuscitation, supplemented with 10% fetal bovine serum (Gibco, 10099141), 100 U/mL penicillin and 100 μg/mL streptomycin (Gibco, 15140122). On the same day, 150 μL of PBMC was spread in each well of a 96-well transparent cell plate (Labserv, 310109008), so that the cell density was 2×10^5 cells/well. Then 50 μL diluted compound solution was added to the corresponding cell-covered wells to make the final concentration of the compound in the range of 0.026-10000 nM. The final concentration of DMSO was 0.25%. After the drug-treated cell plate was cultured at 37° C. for 1 hour or 20 hours in a 5% CO2 incubator, 10 μL LPS (0111:B4) (Sigma, L4391) was added with a final concentration of 100 ng/mL. The cell plate was again placed in a 5% CO2 incubator at 37° C. for 5 hours, centrifuged at 2000 rpm for 10 minutes, and 100 μL cell supernatant was taken from each well and transferred to a new 96-well transparent cell plate for cytokine concentration test, which was frozen at −80° C. to be tested.
The concentration of IL-6 in the supernatant of LPS-induced human PBMC cells was determined using interleukin-6 (IL-6) AlphaLISA detection kit (PerkinElmer, AL223 C).
According to the product instructions, IL-6 standard solutions with different concentrations were prepared in the concentration range of […]. 2 μL of IL-6 standard solution at various concentrations and the cell supernatant sample to be tested were taken, respectively added to white 384 well plates (PerkinElmer, 6007299), then a mixed solution of 8 μL of 5× anti-IL-6 receptor beads (final concentration: 10 μg/mL) and biotin-labeled anti-IL-6 antibody (final concentration 1 nM) was added to each well, and incubated at 23° C. for 60 minutes. Finally, 10 μL of 2× streptavidin-labeled donor beads (final concentration: 40 μg/mL) were added to each well and incubated at 23° C. for 30 minutes in the absent of light. After the incubation, the AlphaLISA signal value was determined in the AlphaScreen standard setting mode on the microplate reader EnVision(PerkinElmer, 2105). The standard curve was drawn by the AlphaLISA signal value of each concentration IL-6 standard solution, and then based on the corresponding concentration on the standard curve for the AlphaLISA signal value of the sample to be tested, the IL-6 concentration of each cell lysis supernatant was determined. Compared with the IL-6 concentration of the control group, the inhibition rate of the compound at each concentration was calculated, and then IC50 value of the compound was calculated by fitting the nonlinear curve with the logarithmic concentration-inhibition rate by GraphPad Prism 7.
On the technique in general: In Alpha technology, singlet oxygen from a donor bead excites a nearby acceptor bead.

`COc1cc2nn(C3CCN(CC4CCN(CCOc5ccc6c(c5)C(=O)N(C5CCC(=O)NC5=O)C6=O)CC4)CC3)cc2cc1NC(=O)c1cccc(C(F)(F)F)n1` (stereo not drawn) [Control group 2, N-(2-(1-((1-(2-((2-(2,6-dioxopiperidin-3-yl)-1,3-dioxoisoindol-5-yl)oxy)ethyl)piperidin-4-yl)methyl)piperidin-4-yl)-6-methoxy-2H-indazol-5-yl)-6-(trifluoromethyl) pyridinecarboxamide, reference compound]: the IC50 in assay [1] turned out to be 15.2 nM; in assay [2], 2050 nM.

With `CN(CC1CCN(c2cccc3c2C(=O)N(C2CCC(=O)NC2=O)C3=O)CC1)C[C@H]1CC[C@H](n2cc3cc(NC(=O)c4cccc(C(F)(F)F)n4)c(C(C)(C)O)cc3n2)CC1` (stereo partly drawn) [Control group 3, N-(2-((1r,4r)-4-((((1-(2-(2,6-dioxopiperidin-3-yl)-1,3-dioxoisoindolin-4-yl)piperidin-4-yl)methyl) (methyl)amino)methyl)cyclohexyl)-6-(2-hydroxyprop-2-yl)-2H-indazol-5-yl)-6-(trifluoromethyl) pyridinecarboxamide, reference compound], the IC50 in assay [1] stood at 16.2 nM; in assay [2], 47.5 nM.

Regarding `CC(C)(O)c1cc2nn(C3CCN(CC4CCC5(CC4)CCN(C(=O)c4ccc(Cl)c(N6CCC(=O)NC6=O)c4)CC5)CC3)cc2cc1NC(=O)c1cccc(C(F)(F)F)n1` [Example 31, N-(2-(1-((3-(4-chloro-3-(2,4-dioxotetrahydro-pyrimidin-1 (2H)-yl)benzoyl)-3-azaspiro [5.5]undec-9-yl)methyl)piperdin-4-yl)-6-(2-hydroxyprop-2-yl)-2H-indazol-5-yl)-6-(trifluoro-methyl) pyridinecarbox-amide], the half-maximal inhibitory concentration (IC50) in assay [1] turned out to be 14 nM; in assay [2] it was 1.8 nM.

For orientation: IC50 means the concentration that gives 50% inhibition. High values mean a need for much substance, low ones inhibition by little substance.

(Values after US20230234936A1, “COMPOUND FOR TARGETING AND DEGRADING PROTEIN, AND PREPARATION METHOD THEREFOR AND USE THEREOF” (SHANGHAI LEADINGTAC PHARMACEUTICAL CO., LTD., priority 2020, published 2023).)
